Test results from US11632954B2, “Polymorphs of 5-fluoro-4-imino-3-methyl-1 -tosyl-3,4-dihydropyrimidin-2-one” (ADAMA MAKHTESHIM LTD., priority 2017, dated 2023).
Values belong to the compound of their own block, whether it stands above or below them.

Key:
Format in all cases: physicochemical
[1] = TG-FTIR thermogram, beginning of decomposition; settings: N2 atmosphere; 10° C./min, 25 to 300° C.
Procedure: FT-Raman Spectroscopy: Bruker Multi-RAM with OPUS 6.5 software; Nd:YAG 1064-nm excitation, Ge detector, 3500-50 cm-1 range; typical measurement conditions: 300 mW nominal laser power, 64 scans, 2 cm-1 resolution; samples pressed into the cavity of aluminum sample holders TG-FTIR: Netzsch Thermo-Microbalance TG 209 with Bruker FT-IR Spectrometer Vector 22; aluminum crucible (with microhole); N2 atmosphere; 10° C./min heating rate, from 25 to 300° C.

[2] = Solid-state hygroscopicity / stability against hydration
[3] = Relative thermodynamic stability of Forms I and II: competitive slurry experiments; settings: for Result (XRPD): seeded with Form I + Form II after 4 h, analyzed wet
Procedure: (§1) The relative thermodynamic stability of the polymorphs was determined by slurry experiments at RT and 5° C. […] The stability was further investigated at 5° C. and in addition, another experiment was performed at MEK at RT. MEK was chosen as suspending media because that was the only solvent where Form II was formed when slurrying the starting material. […] The experiment at 5° C. in TBME was actually carried out only as a control.

[4] = Critical water activity: seeded suspension equilibration of Hydrate vs anhydrous Forms I and II in 2-PrOH/water and THF/water; settings: for Result (XRPD): analyzed wet
Procedure: The critical water activity between the Hydrate and anhydrous Forms I and II was attempted to be determined at room temperature in 2-PrOH/water and THF/water mixtures. […] After two additional days of stirring at RT, the solid was separated from the liquid by centrifuge filtering.
In order to clarify the root cause of the surprising results regarding the critical water activities, three further experiments were performed. The slurries at water activities of 0.5 and 0.7 were repeated using freshly prepared solvent mixtures and the suspension equilibration at a water activity of 0.7 was also performed in 2-PrOH/water mixture. The formation of thick suspension in 2-PrOH/water mixtures was experienced again; the initially obtained thick suspension turned into a well-stirred slurry upon one day of stirring. Then it was seeded with the three forms and the solid was isolated after additional two days of stirring.

[5] = Dehydration of the Hydrate, DSC in an open pan
Procedure: DSC: TA Instruments DSC Q2000; hermetically closed gold crucible; N2 atmosphere; 10° C./min heating rate, from 20 to 190° C. The melting point is understood as the peak onset.
1) Measuring by DSC in an open pan, the water of crystallization evaporates in the temperature range of 20-100° C. Then a sharp endothermic event due to melting follows in the thermogram at 159° C. (FIG. 10).

[6] = Solvate formation in suspension crystallization at RT
Procedure: (§2) 1) About 100 mg of 5-fluoro-4-imino-3-methyl-1-tosyl-3,4-dihydropyrimidin-2(1H)-one was suspended in 1.0 ml of 2-PrOH previously dried over 4 Å molecular sieves and the suspension was stirred for 11 d at RT and filtered through a 0.2-μm PTFE centrifuge filter and analyzed without drying, or dried in dry N2 stream at RT for 1 h.
as §2, with “2)” for “1)”, “tert-butyl methyl ether (TBME)” for “2-PrOH”, “RT,” for “RT and”, “drying.” for “drying, or dried in dry N2 stream at RT for 1 h.”
3) About 100 mg of 5-fluoro-4-imino-3-methyl-1-tosyl-3,4-dihydropyrimidin-2(1H)-one was suspended in 1.0 ml of toluene previously dried over 4 Å molecular sieves and the suspension was stirred for 11 d at RT, filtered through a 0.2-μm PTFE centrifuge filter and analyzed without drying.
Form II was prepared by suspension crystallization. About 120 mg of 5-fluoro-4-imino-3-methyl-1-tosyl-3,4-dihydropyrimidin-2(1H)-one was suspended in 0.8 ml of methyl ethyl ketone (MEK) previously dried over 4 Å molecular sieves and the suspension was stirred for 11 d at room temperature and filtered through a 0.2-μm PTFE centrifuge filter. The solid was allowed to dry under ambient conditions for 1 d.

[7] = Solubility in suspending medium; settings: in MEK
Procedure: as §1

decomposition beginning at a temperature (TG-FTIR) [1]: greater than 210 °C
hygroscopicity [2]: non-hygroscopic
kinetic stability against hydration ([2]; at higher relative humidity): high kinetic stability against hydration
relative stability vs Form II in competitive slurry ([3]; TBME at 5° C.): unequivocally more stable than Form II
relative thermodynamic stability vs Form II ([3]; water activities of 0.1 and 0.3, RT): more stable
relative thermodynamic stability among the three forms suspended ([4]; water activity of 0.3 and below, RT): thermodynamically most stable
Compound: Cc1ccc(S(=O)(=O)n2cc(F)c(=N)n(C)c2=O)cc1 [Form I, 5-fluoro-4-imino-3-methyl-1-tosyl-3,4-dihydropyrimidin-2(1H)-one]
thermodynamic stability vs polymorph Form II ([3]; at 5° C. and above): thermodynamically more stable than polymorph Form II
thermodynamic stability vs the hydrate form ([4]; water activity of 0.3 or less at room temperature): thermodynamically more stable than the hydrate form

decomposition beginning at a temperature (TG-FTIR) [1]: greater than 190 °C
temperature range in which the water of crystallization evaporates [5]: 20-100 °C
relative thermodynamic stability among the three forms suspended ([4]; water activity of 0.5 and 0.9, RT (Table 1)): more stable
relative stability vs Form I and Form II (ultimate finding) ([4]; water activity of 0.5 and higher at RT): more stable than the two anhydrous forms
Compound: Cc1ccc(S(=O)(=O)n2cc(F)c(=N)n(C)c2=O)cc1 [Hydrate, 5-fluoro-4-imino-3-methyl-1-tosyl-3,4-dihydropyrimidin-2(1H)-one]
form resulting from dehydration ([5]; melting at 159° C. coincides with Form I): anhydrous Form I

decomposition beginning at a temperature (TG-FTIR) [1]: greater than 200 °C
Compound: Cc1ccc(S(=O)(=O)n2cc(F)c(=N)n(C)c2=O)cc1 [Form S1, 5-fluoro-4-imino-3-methyl-1-tosyl-3,4-dihydropyrimidin-2(1H)-one]

decomposition beginning at a temperature (TG-FTIR) [1]: greater than 180 °C
Compound: Cc1ccc(S(=O)(=O)n2cc(F)c(=N)n(C)c2=O)cc1 [Form S8, 5-fluoro-4-imino-3-methyl-1-tosyl-3,4-dihydropyrimidin-2(1H)-one]

decomposition beginning at a temperature (TG-FTIR) [1]: greater than 210 °C
relative thermodynamic stability among the three forms suspended ([4]; water activity of 0.7, RT (Table 1), patent assumes this finding untrue): more stable
Compound: Cc1ccc(S(=O)(=O)n2cc(F)c(=N)n(C)c2=O)cc1 [Form II, 5-fluoro-4-imino-3-methyl-1-tosyl-3,4-dihydropyrimidin-2(1H)-one]

Result (XRPD) ([3]; MEK (dry), 5° C.): Form S9 + Form I
Result (XRPD) ([3]; MEK (dry), 22° C.): Form I + Form II
Result (XRPD) ([3]; TBME (dry), 5° C.): Form I
solubility [7]: rather high
Result (XRPD) ([4]; 2PrOH/water = 89.6/10.4, aw 0.7, seeded with HH + Form I + Form II after 1 d): HH″ + traces
Result (XRPD) ([4]; 2PrOH/water = 94.7/5.3, aw 0.5, RT, seeded with HH + Form I + Form II after 3 d): HH′
Result (XRPD) ([4]; 2PrOH/water = 97.5/2.5, aw 0.3, RT, seeded with HH + Form I + Form II after 3 d): Form I
Result (XRPD) ([4]; 2PrOH/water = 99.3/0.7, aw 0.1, RT, seeded with HH + Form I + Form II after 3 d, 2 d more stirring): Form I
Result (XRPD) ([4]; THF/water = 79.7/21.3, aw 0.9, RT, seeded with HH + Form I + Form II after 3 d): HH″
Result (XRPD) ([4]; THF/water = 96.4/3.6, aw 0.7, RT, seeded with HH + Form I + Form II after 3 d): Form II
Result (XRPD) ([4]; repeat, fresh solvent, 2PrOH/water = 94.7/5.3, aw 0.5, seeded with HH + Form I + Form II after 1 d): HH″ + some
Result (XRPD) ([4]; repeat, fresh solvent, THF/water = 96.4/3.6, aw 0.7, seeded with HH + Form I + Form II after 1 d): HH′
Compound: Cc1ccc(S(=O)(=O)n2cc(F)c(=N)n(C)c2=O)cc1 [PP539-P1, 5-fluoro-4-imino-3-methyl-1-tosyl-3,4-dihydropyrimidin-2(1H)-one]
formation of thermodynamically stable solvates ([6]; with MEK at RT, Form II formed): does not form thermodynamically stable solvates
formation of thermodynamically stable solvates ([6]; with toluene, 2-PrOH and TBME at RT, Form I formed): does not form thermodynamically stable solvates

decomposition beginning at a temperature (TG-FTIR) [1]: greater than 180 °C
Compound: Cc1ccc(S(=O)(=O)n2cc(F)c(=N)n(C)c2=O)cc1 [Form S5, 5-fluoro-4-imino-3-methyl-1-tosyl-3,4-dihydropyrimidin-2(1H)-one]
